Entries after “also recorded” stand apart in the source; their conditions may differ.
Assays:
[1] = system: human chondrocytes (NHAC-kn); experiment: Pro-inflammatory model of chondrocytes treated with IL-1β, cytokine release (Multiplex); format: cell-based; details: chondrocytes treated with IL-1β (1 ng/mL)
Experimental: Values were obtained from each analyte in pg/mL from treatment with the peptides in the presence of IL-1β (1 ng/mL). The data are presented as the mean±MSE (* p<0.05 when compared to the control with IL-1β, test t, n=3).
(B) Chondrocytes were pretreated for 1 hour with IL-1β (1 ng/mL) before the addition of peptides (200 nM, 500 nM, and 1.25 μM) and an additional incubation of 24 hours before collecting the supernatants.
The primary human chondrocytes used in this assay were purchased from Lonza: Normal Human Articular Primary chondrocytes (NHAC-Kn, #CC-2550, Lot 8F3336). Chondrocyte cell culture was performed in bottles (Sarstedt T175 and T75). The cells were cultivated in DMEM culture medium (Sigma) supplemented with 10% fetal bovine serum (FBS) (Sigma), incubated in an oven at 37° C. and 5% CO2, and cultures were used in the sixth passage. The culture medium was changed every two days until the culture reached 80% confluence.
The identification and quantitative analysis of the cytokines present in the peptide treatment supernatant were performed using the Luminex xMAP Milliplex MAP Human Cytokine/Chemokine Magnetic Bead Panel Catalog #HCYTOMAG-60K technology, according to the manufacturer's instructions.
Values were obtained from each analyte in pg/mL from treatment with the peptides in the presence of IL-1β (1 ng/mL). The data are presented as the mean±MSE (*p<0.05 when compared to the control with IL-1β, test t, n=3).

[2] = system: neurons obtained from SHSY5Y cells; experiment: Anti-nociceptive/anti-inflammatory model, neurons stimulated with glycated collagen (GC): substance P and β-endorphin in supernatant; format: cell-based
Experimental: ANOVA and Dunnet * p<0.05; ** p<0.01 compared to glycated collagen (GC);
ANOVA and Dunnet * p<0.05 ** p<0.01, *** p<0.001 compared with GC;
The differentiation process consists of 6 stages distributed over 7 days. On the first day of the differentiation protocol (day 0), cells were seeded in collagen-coated plates. On days 1, 3, and 4 the culture medium was removed, and the differentiation medium containing 2% fetal bovine serum (FBS) and retinoic acid (RA) 10 μM) was added. On day 5, the medium was removed and the culture was incubated with culture medium and brain-derived neurotrophic factor (BDNF) (50 ng/mL). On day 7 of the differentiation process, differentiated neurons are fully ready for use (Agholme et al., 2010, with some modifications).
7×10^3 neurons/well were incubated with 10 μM of morphine (inhibitory response control) or peptides (200 nM and 500 nM) 3 hours before or 3 hours after incubation with IL-1β (10 ng/mL) or glycated collagen (GC) (100 μg/mL) (both positive controls for the release of substance P). After 24 hours of incubation, the cell viability assay and the detection of substance P and β-endorphin in the supernatant were performed. Multiplex with magnetic spheres (MILLIPLEX® MAP Magnetic Bead Panel)
ANOVA and Dunnet * p<0.05; ** p<0.01 compared to GC.
ANOVA and Dunnet * p<0.05 ** p<0.01, *** p<0.001 compared to GC.

[3] = system: osteoclast precursors (PBMNC); experiment: Osteoclast differentiation model, TRAP+ cell count; format: cell-based, human; details: peptide 200 nM added on day four to osteoclast precursor culture, 15 days; compared to positive control (CTRL)
Experimental: A. Positive differentiation controls. B. Influence of synthetic peptides (200 nM) on osteoclast differentiation. C. Negative differentiation control. αMEM—Minimum Essential Medium Eagle Alpha Modification; FBS—fetal bovine serum; TRANCE—Tumor Necrosis Factor (TNF)-related Activation-induced Cytokine; M-CSF—Macrophage Colony-Stimulating Factor; TGF-β1—Transforming growth factor beta-1.
The present invention includes the culture of monocytic cells of human leukemia (THP-1), osteoclast, primary human blood-derived mononuclear cells (PBMNC), and human chondrocytes (NHAC-kn).
Negative differentiation controls. B. Influence of synthetic peptides (200 nM) on osteoclast differentiation.
PBMNC were isolated and, immediately after, plating inductive culture medium (composed of Alpha-MEM+10% FBS+MCSF [25 ng/mL]+RANKL [50 ng/mL]+TGF-beta 1 [5 ng/mL]+Dexamethasone [1 μM]) was added for 15 days. On day four, the L. obliqua venom at a concentration of […] or toxins at a concentration of 200 nM, each individually, was added to the osteoclast precursor culture and these culture conditions were maintained until the end of the differentiation. Then, the cells were fixed and stained with tartrate-resistant acid phosphatase (TRAP).

[4] = system: THP-1 cells differentiated into macrophages; experiment: LPS-induced cytokine production in THP-1-derived macrophages (Multiplex); format: cell-based, human
Experimental: THP-1 cells differentiated into macrophages were induced with LPS (10 ng/mL) and, one hour later, treated with synthetic peptides at a concentration of 200 nM. Dexamethasone (10 μM), an inflammatory inhibitor, was used as a control. After 24 hours, the culture medium was collected to measure the IL-1β (A), IL-6 (B), TNF-α (C), and IL-10 cytokines using a Multiplex kit. * p<0.05 vs. LPS; ** p<0.01 vs. LPS; *** p<0.005 vs. LPS;
THP-1 cells differentiated into macrophages were induced with LPS (10 ng/mL) and, one hour later, treated with L4 or D3 peptide (0.05 μM, 0.2 μM, 1 μM, and 2 μM). After 24 hours, the culture medium was collected and TNF-alpha, IL-6, IL-23, and IL-8 were measured by Multiplex. (A) L4 peptide. (B) D3 peptide;
Macrophages were obtained from the differentiation of monocytes THP-1. Briefly, 1×10^7 cells were treated in the RPMI medium with 25 nM PMA for 48 hours followed by 24 hours of rest in medium without PMA. Subsequently, the cells were released and plated for the respective treatments.
The kit is based on Luminex® xMAP® technology that allows the simultaneous analysis of various cytokines. The technique is based on marked magnetic fluorescent spheres, known as MagPlex®-C microspheres. These microspheres are covered with capture antibodies specific for IL-6 […], and specifically capture the analyte in the supernatant. Each microsphere was individually identified and the results were analyzed using Luminex® Xponent® 4.2 acquisition software.
THP-1 cells differentiated into macrophages were induced with LPS (10 ng/mL) and, one hour later, treated with synthetic peptides, […] (inflammation inhibitor, 10 μM). After 24 hours, the culture medium was collected and IL-1β (A), IL-6 (B), TNF-α (C), and IL-10 were measured by Multiplex. * p<0.05 vs. LPS; ** p<0.01 vs. LPS; *** p<0.005 vs. LPS.
THP-1 cells differentiated into macrophages were induced with LPS (10 ng/mL) and, one hour after, treated with L4 (0.05 μM, 0.2 μM, 1 μM, and 2 μM). After 24 hours, the culture medium was collected and TNF-α, IL-6, IL-23, and IL-8 were measured by Multiplex. (A) L4 peptide. (B) D3 peptide.

[5] = peptide 200 nM incubated 3 hours after GC (100 μg/mL)
[6] = LPS 10 ng/mL, peptide 200 nM one hour later, 24 hours, vs group treated only with LPS
[7] = dose-response 0.05, 0.2, 1 and 2 μM, LPS 10 ng/mL, 24 hours

RWLKDGQAFH (Designated peptide based on the motif of a group of proteins called hemoline from lepidoptera acting as an anti-inflammatory molecule) [L8]
anti-inflammatory activity (release of G-CSF, GM-CSF, IL-6, IL-8, MCP-1, TNF-α) [1]: anti-inflammatory activity

QPEISWTRNK (Designated peptide based on the motif of a group of proteins called hemoline from lepidoptera acting as an anti-inflammatory molecule) [L6]
anti-inflammatory activity (release of G-CSF, GM-CSF, IL-6, IL-8, MCP-1, TNF-α) [1]: anti-inflammatory activity

VWRKNGKKVS (Designated peptide based on the motif of a group of proteins called hemoline from lepidoptera acting as an anti-inflammatory molecule) [L3]
anti-inflammatory activity (release of G-CSF, GM-CSF, IL-6, IL-8, MCP-1, TNF-α) [1]: anti-inflammatory activity

EEQTHFHFESPKLISFKVQDYWILNDIMKKNLTGISLKSEEEDADSGEID (Designated peptide based on the motif of a group of proteins called hemoline from lepidoptera acting as an anti-inflammatory molecule) [Cambly, peptide derived from the Amblyomin-X molecule with characteristics of CPP (cell-penetrating peptides)]
production of Substance P [2, 5]: significantly inhibited | production of β-endorphin [2, 5]: increased | production of Substance P ([2]; peptide (200 nM and 500 nM) incubated 3 hours before GC (100 μg/mL)): significantly decrease; also recorded: inhibited | production of β-endorphin ([2]; peptide incubated 3 hours before GC (100 μg/mL)): did not affect | number of TRAP+ cells [3]: reduced

SWLKNGREFR (Designated peptide based on the motif of a group of proteins called hemoline from lepidoptera acting as an anti-inflammatory molecule) [L5]
anti-inflammatory activity (release of G-CSF, GM-CSF, IL-6, IL-8, MCP-1, TNF-α) [1]: anti-inflammatory activity

YSIVAGCL (Designated peptide based on the motif of a group of proteins called hemoline from lepidoptera acting as an anti-inflammatory molecule) [E8]
anti-inflammatory activity (release of G-CSF, GM-CSF, IL-6, IL-8, MCP-1, TNF-α) [1]: anti-inflammatory activity | production of Substance P [2, 5]: significantly inhibited | production of β-endorphin [2, 5]: increased

TWNKKGKKVN (Designated peptide based on the motif of a group of proteins called hemoline from lepidoptera acting as an anti-inflammatory molecule) [L4]
anti-inflammatory activity (release of G-CSF, GM-CSF, IL-6, IL-8, MCP-1, TNF-α) [1]: anti-inflammatory activity | levels of IL-10 (anti-inflammatory cytokine) ([4]; LPS 10 ng/mL, peptide 200 nM one hour later, 24 hours): increase | levels of IL-1β [4, 6]: significantly reducing | levels of IL-6 [4, 6]: significantly reducing | levels of TNF-a [4, 6]: significantly reducing | dose achieving the greatest inhibition of IL-6 release [4, 7]: 200 nM | dose achieving the greatest inhibition of IL-8 release [4, 7]: 200 nM | most effective dose concerning IL-23 release [4, 7]: 1 µM | most effective dose concerning TNF-α release [4, 7]: 1 µM | production of inflammatory cytokines in response to LPS (dose-dependent) ([4]; dose-response 0.05-2 μM, TNF-α, IL-6, IL-23, IL-8): reduced

IWTKDGKAIT (Designated peptide based on the motif of a group of proteins called hemoline from lepidoptera acting as an anti-inflammatory molecule) [L1]
anti-inflammatory activity (release of G-CSF, GM-CSF, IL-6, IL-8, MCP-1, TNF-α) [1]: anti-inflammatory activity

NYFKNGKDVN (Designated peptide based on the motif of a group of proteins called hemoline from lepidoptera acting as an anti-inflammatory molecule) [L2]
anti-inflammatory activity (release of G-CSF, GM-CSF, IL-6, IL-8, MCP-1, TNF-α) [1]: anti-inflammatory activity | number of TRAP+ cells [3]: no statistically significant difference

B1: YAIGYSSKDYKGGGGEEQTHFHFESPKLISFKVQDYWILNDIMKKNLTGISLKSEEEDADSGEID (peptide)
chain: YAIGYSSKDYKGGGGEEQTHFHFESPKLISFKVQDYWILNDIMKKNLTGISLKSEEEDADSGEID
modifications: Designated peptide based on the motif of a group of proteins called hemoline from lepidoptera acting as an anti-inflammatory molecule
production of Substance P [2, 5]: significantly inhibited | production of β-endorphin [2, 5]: increased

B2: YSIVAGSLGGGGEEQTHFHFESPKLISFKVQDYWILNDIMKKNLTGISLKSEEEDADSGEID (peptide)
chain: YSIVAGSLGGGGEEQTHFHFESPKLISFKVQDYWILNDIMKKNLTGISLKSEEEDADSGEID
modifications: Designated peptide based on the motif of a group of proteins called hemoline from lepidoptera acting as an anti-inflammatory molecule
number of TRAP+ cells [3]: significant decrease; also recorded: reduced

— patent US20220324958A1, “ANTI-INFLAMMATORY PEPTIDES, PHARMACEUTICAL COMPOSITION CONTAINING SUCH PEPTIDES, AND USES THEREOF” (INSTITUTO BUTANTAN, priority 2019, published 2022)
